The values below come from patent US6706493B2, “DNA encoding a cholecystokinin receptor” (The United States of America as represented by the …, priority 1992, dated 2004).

Where no end group is shown, it is not given here.

Test [1] addresses T1, CCKA receptor (Rattus norvegicus, UniProt P30551).
T1 construct: expressed in transfected cells; host or cells: Xenopus oocytes injected with in vitro transcribed RNA (clone nt 5 to 1506 in pcDNA-1)
T1 sequence (P30551 1-444): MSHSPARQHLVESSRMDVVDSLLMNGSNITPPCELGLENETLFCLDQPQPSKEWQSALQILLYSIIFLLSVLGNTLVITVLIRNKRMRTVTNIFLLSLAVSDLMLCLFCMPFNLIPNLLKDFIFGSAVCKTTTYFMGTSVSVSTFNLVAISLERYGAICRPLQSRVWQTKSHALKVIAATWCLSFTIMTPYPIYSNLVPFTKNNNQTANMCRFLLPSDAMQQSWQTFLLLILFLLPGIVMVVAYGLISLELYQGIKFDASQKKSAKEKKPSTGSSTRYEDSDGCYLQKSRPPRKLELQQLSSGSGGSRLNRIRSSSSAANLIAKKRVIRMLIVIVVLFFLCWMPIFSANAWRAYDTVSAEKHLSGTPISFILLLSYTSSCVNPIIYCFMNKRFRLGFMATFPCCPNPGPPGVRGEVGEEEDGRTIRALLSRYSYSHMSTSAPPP
The experiment in a line: Ligand-induced chloride current in Xenopus oocytes injected with rat CCKA receptor mRNA. The format is cell-based. The following applies: oocytes voltage clamped at -70 mV, 1 and 2 days after injection; FIG. 5A: 1 μM CCK-8, 1 μM gastrin-releasing peptide, 4 μM substance P. Here is the method:
FIGS. 5A and 5B. Expression of the CCKA receptor in Xenopus oocytes. Ligand, induced chloride currents measured in the same oocytes one (A) and two (B) days after injection of mRNA (25 ng) in vitro transcribed from CCKA receptor cDNA cloned from rat pancreas. A. Response to agonists.
DNA was in vitro transcribed using T7 RNA polymerase from a CCK receptor clone template (5 to 1506, FIG. 1, SEQ NO:13) in pcDNA-1 (5 μg linearized with Apa 1) in the presence of the cap analog m^7G(5′)ppp(5′)G as recommended by the manufacturer (Promega). Xenopus oocytes were injected with 50 nl of approximately 25 ng of transcribed RNA. At 1-2 days, oocytes were voltage clamped at −70 mV, ligands were applied rapidly and directly to the constantly perfused bath and the ligand dependent Cl^− current measured.

In test [2] the target is T2, CCKB receptor (Rattus norvegicus, UniProt P30553).
T2 sequence (P30553 1-452): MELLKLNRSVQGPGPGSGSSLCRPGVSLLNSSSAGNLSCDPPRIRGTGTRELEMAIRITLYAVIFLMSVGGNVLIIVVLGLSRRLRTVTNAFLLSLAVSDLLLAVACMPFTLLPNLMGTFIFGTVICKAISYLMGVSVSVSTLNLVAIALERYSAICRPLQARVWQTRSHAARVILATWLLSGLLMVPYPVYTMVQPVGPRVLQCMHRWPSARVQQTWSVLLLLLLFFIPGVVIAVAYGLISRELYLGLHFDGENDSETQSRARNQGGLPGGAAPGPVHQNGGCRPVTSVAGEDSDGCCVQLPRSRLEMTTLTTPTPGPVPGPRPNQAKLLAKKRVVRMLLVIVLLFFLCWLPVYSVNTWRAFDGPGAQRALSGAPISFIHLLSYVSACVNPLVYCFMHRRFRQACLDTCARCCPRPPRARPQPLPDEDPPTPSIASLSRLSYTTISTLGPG
The following applies: COS-7 cells, rat CCKB receptor cDNA, 50 pM radioligand.
Experimental: Each experiment was performed in duplicate and the results given are the means from at least two separate experiments.
Two micrograms of PCDL-SRα containing either the CCKA coding region insert subcloned at an Xba 1 site in the sense orientation or the CCKB insert subcloned at an Eco R1 site in the sense orientation were transfected into a near confluent 100 mm tissue culture plate containing approximately 1×10^6 COS-7 cells using a DEAE/dextran method. Approximately 48 hours post transfection, the cells were washed twice with phosphate buffered saline (PBS), pH 7.4, 0.1% BSA at 4° C., scraped from the plate in Dulbeccols Modified Eagle's Medium (DMEM), 0.1% BSA, 4° C., centrifuged at 400×G, and resuspended at approximately 3-105 cells per ml in DMEM, 0.1% BSA, 4° C. […] Cells were subsequently washed three times with 2 ml PBS, 0.1% BSA, 4° C. by filtration on glass filters (Whatman GF/B) using a suction manifold (Millipore). Filters were assayed for gamma radioactivity (Packard, Auto-Gamma).

Test [3] has as its target T3, substance P receptor (Rattus norvegicus, UniProt P14600).
T3 construct: expressed in transfected cells; host or cells: Xenopus oocytes injected with receptor mRNA
Kind of test: L-364,718 on SP response in oocytes injected with SP receptor mRNA. Type of test: cell-based. An excerpt:
(§1) Inhibition was specific for CCKA receptors (i.e., there was no inhibition of SP or ACh response in oocytes injected with their respective receptor mRNAs).

Test [4] deals with acetylcholine receptor. The experiment in a line: L-364,718 on ACh response in oocytes injected with ACh receptor mRNA. The format is cell-based.
Source text: as §1

T3 sequence (P14600 whole entry): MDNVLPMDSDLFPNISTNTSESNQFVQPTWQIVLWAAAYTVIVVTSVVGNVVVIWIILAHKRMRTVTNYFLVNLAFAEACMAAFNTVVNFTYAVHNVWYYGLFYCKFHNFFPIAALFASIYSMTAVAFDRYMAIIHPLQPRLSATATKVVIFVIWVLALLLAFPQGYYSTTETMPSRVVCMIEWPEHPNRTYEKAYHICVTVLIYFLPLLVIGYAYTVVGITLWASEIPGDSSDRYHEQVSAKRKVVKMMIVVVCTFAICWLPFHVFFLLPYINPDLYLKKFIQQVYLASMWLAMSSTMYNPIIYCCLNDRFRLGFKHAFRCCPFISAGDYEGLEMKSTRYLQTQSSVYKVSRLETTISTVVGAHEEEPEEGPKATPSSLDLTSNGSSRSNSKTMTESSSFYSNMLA

Turning to substance P, the “response of oocytes to agonist (ligand dependent Cl- current)” value in test [1] was “not”.

On to `Cc1cccc(NC(=O)N[C@@H]2N=C(c3ccccc3)c3ccccc3N(C)C2=O)c1` [L-365,260], for which the “potency at inhibiting 125I-BH-CCK-8 binding relative to L-364,718” value in test [2] is on record as 10-100 fold. In the case of “gastrin-releasing peptide (VPLPAGGGTVLTKMYPRGNHWAVGHLM; ends and bridges not checked; UniProt P07492 24-50, looked up)”, the “response of oocytes to agonist (ligand dependent Cl- current)” value in test [1] is “not”. Take `CN1C(=O)[C@@H](NC(=O)c2cc3ccccc3[nH]2)N=C(c2ccccc2)c2ccccc21` [L-364,718]: in test [3], the “inhibition of SP response” value was “no inhibition”. For the same compound, the “inhibition of ACh response” value in test [4] is “no inhibition”.
